# Values quoted from earlier work as cited in US6809181B2, “Human beta-defensin-3 (HBD-3), a highly cationic beta-defensin antimicrobial peptide” (University of Iowa Research Foundation, priority 2000, dated 2004).
# Where two headings read alike, the source gives them in different places.
# What was measured:
# Bacillus spp. = conditions: cited from earlier work
# Bordetella pertussis = conditions: n=32; r10; unit assumed; cited from earlier work
# [1] = tested on: Branhamella (Moraxella) catarrhalis (non β-lactamase producer); conditions: cited from earlier work
# Campylobacter pylori = conditions: n=56, r43, cited from earlier work
# Corynebacterium JK = conditions: n=19; r46; unit assumed; cited from earlier work
# Enterococcus faecalis = conditions: cited from earlier work
# Enterococcus spp. = conditions: n=35, r52, cited from earlier work
# Haemophilus ducreyi = conditions: n=122; r53; unit assumed; cited from earlier work
# Haemophilus influenzae = conditions: cited from earlier work; for MIC50 / MIC90: unit assumed
# [2] = tested on: Haemophilus influenzae (non β-lactamase producer); conditions: n=137; r58; cited from earlier work
# [3] = tested on: Haemophilus influenzae (penicillin resistant); conditions: n=20, r66, cited from earlier work
# [4] = tested on: Haemophilus parainfluenzae; conditions: n=13, r68, cited from earlier work
# Neisseria gonorrhoeae = conditions: n=19, r81, cited from earlier work
# [5] = tested on: Neisseria gonorrhoeae (non β-lactamase producer); conditions: cited from earlier work
# Neisseria meningitidis = conditions: n=19, r90, cited from earlier work
# [6] = tested on: Staphylococcus epidermidis; conditions: n=50; r120; unit assumed; cited from earlier work
compound,measurement,setting,value
"CC[C@H]1OC(=O)[C@H](C)[C@@H](O[C@H]2C[C@@](C)(OC)[C@@H](O)[C@H](C)O2)[C@H](C)[C@@H](O[C@@H]2O[C@H](C)C[C@H](N(C)C)[C@H]2O)[C@](C)(O)C[C@@H](C)C(=O)[C@H](C)[C@@H](O)[C@]1(C)O [ERYTHROMYCIN, erythromycin]",Range,"Bacillus spp.; n=20, r6",0.03-2
same,MIC90,"Bacillus spp.; n=20, r6, unit assumed",2 µg/mL
same,MIC50,Bacillus spp.; unit assumed,0.25 µg/mL
same,MIC50,Bordetella pertussis,0.25 µg/mL
same,Range,"[1]; n=14, r23",0.06-1
same,Range,"[1]; n=16, r26",0.015-1
same,Range,"[1]; n=40, r17",0.06-0.5
same,Range,Campylobacter pylori,0.25-16
same,MIC50,Campylobacter pylori; unit assumed,0.5 µg/mL
same,MIC90,Campylobacter pylori; unit assumed,1 µg/mL
same,MIC50,Corynebacterium JK,2 µg/mL
same,Range,"Enterococcus faecalis; n=26, r47",1-64
same,MIC50,"Enterococcus faecalis; n=26, r47, unit assumed",1 µg/mL
same,MIC90,"Enterococcus faecalis; n=26, r47, unit assumed",4 µg/mL
same,Range,"Enterococcus faecalis; n=50, r48",0.06-64
same,MIC50,"Enterococcus faecalis; n=50, r48, unit assumed",4 µg/mL
same,MIC50,"Enterococcus faecalis; n=86, r49, unit assumed",1 µg/mL
same,MIC50,"Enterococcus faecalis; n=97, r50, unit assumed",2 µg/mL
same,Range,Enterococcus spp.,0.06-32
same,MIC50,Enterococcus spp.; unit assumed,2 µg/mL
same,MIC90,Enterococcus spp.; unit assumed,32 µg/mL
same,MIC50,Haemophilus ducreyi,0.004 µg/mL
same,MIC90,Haemophilus ducreyi,0.06 µg/mL
same,Range,"Haemophilus influenzae; n=97, r55",0.25-16
same,MIC50,"Haemophilus influenzae; n=97, r55",1 µg/mL
same,MIC90,"Haemophilus influenzae; n=97, r55",4 µg/mL
same,Range,"Haemophilus influenzae; n=145, r54",0.5-8
same,MIC50,"Haemophilus influenzae; n=145, r54",2 µg/mL
same,MIC90,"Haemophilus influenzae; n=145, r54",2 µg/mL
same,Range,[2],0.06-8
same,Range,[3],8-16
same,MIC50,[3]; unit assumed,8 µg/mL
same,MIC90,[3]; unit assumed,16 µg/mL
same,Range,[4],0.5-8
same,MIC50,[4]; unit assumed,2 µg/mL
same,MIC90,[4]; unit assumed,4 µg/mL
same,Range,Neisseria gonorrhoeae,0.0075-8
same,MIC50,Neisseria gonorrhoeae; unit assumed,0.25 µg/mL
same,MIC90,Neisseria gonorrhoeae; unit assumed,1 µg/mL
same,Range,"[5]; n=73, r82",0.015-4
same,Range,"[5]; n=78, r84",0.03-2
same,Range,Neisseria meningitidis,0.5-8
same,MIC50,Neisseria meningitidis; unit assumed,1 µg/mL
same,MIC90,Neisseria meningitidis; unit assumed,8 µg/mL
same,MIC50,[6],64 µg/mL
